Like-named read-outs stand apart in the source and are kept apart here.
How the values were obtained:
HOP-62 [1] = assay: NCI one-dose assay; type: cell-based; settings: Homo sapiens, HOP-62, Non-small cell lung cancer, read-out: Cell growth inhibition %
HT29 = assay: NCI one-dose assay; type: cell-based; settings: Homo sapiens, HT-29, HT29, Colon cancer, read-out: Cell growth inhibition %
LOX IMVI = assay: NCI one-dose assay; type: cell-based; settings: Homo sapiens, Melanoma, read-out: Cell growth inhibition %
M14 = assay: NCI one-dose assay; type: cell-based; settings: Homo sapiens, M14, Melanoma, read-out: Cell growth inhibition %
MCF7 [2] = assay: NCI one-dose assay; type: cell-based; settings: Homo sapiens, MCF7, Breast cancer, read-out: Cell growth inhibition %
MDA-MB-435 = assay: NCI one-dose assay; type: cell-based; settings: Homo sapiens, MDA-MB-435, Melanoma, read-out: Cell growth inhibition %
MDA-MB-468 = assay: NCI one-dose assay; type: cell-based; settings: Homo sapiens, MDA-MB-468, Breast cancer, read-out: Cell growth inhibition %
NCI-H322M = assay: NCI one-dose assay; type: cell-based; settings: Homo sapiens, Non-small cell lung cancer, read-out: Cell growth inhibition %
OVCAR-4 = assay: NCI one-dose assay; type: cell-based; settings: Homo sapiens, OVCAR-4, Ovarian cancer, read-out: Cell growth inhibition %
OVCAR-8 = assay: NCI one-dose assay; type: cell-based; settings: Homo sapiens, OVCAR-8, Ovarian cancer, read-out: Cell growth inhibition %
SF-268 = assay: NCI one-dose assay; type: cell-based; settings: Homo sapiens, SF-268, CNS cancer, read-out: Cell growth inhibition %
SK-MEL-2 = assay: NCI one-dose assay; type: cell-based; settings: Homo sapiens, SK-MEL-2, Melanoma, read-out: Cell growth inhibition %
SK-MEL-5 = assay: NCI one-dose assay; type: cell-based; settings: Homo sapiens, SK-MEL-5, Melanoma, read-out: Cell growth inhibition %
SNB-19 = assay: NCI one-dose assay; type: cell-based; settings: Homo sapiens, SNB-19, CNS cancer, read-out: Cell growth inhibition %
SNB-75 [3] = assay: NCI one-dose assay; type: cell-based; settings: Homo sapiens, SNB-75, CNS cancer, read-out: Cell growth inhibition %
SW-620 = assay: NCI one-dose assay; type: cell-based; settings: Homo sapiens, SW-620, Colon cancer, read-out: Cell growth inhibition %
T-47D = assay: NCI one-dose assay; type: cell-based; settings: Homo sapiens, T47D, Breast cancer, read-out: Cell growth inhibition %
TK-10 = assay: NCI one-dose assay; type: cell-based; settings: Homo sapiens, TK-10, Renal cancer, read-out: Cell growth inhibition %
786-0 = assay: NCI one-dose assay; type: cell-based, human; settings: Homo sapiens, 786-0, 786-0, Renal cancer, read-out: Cell growth inhibition %
A498 = assay: NCI one-dose assay; type: cell-based, human; settings: Homo sapiens, A498, A498, Renal cancer, read-out: Cell growth inhibition %
HOP-92 = assay: NCI one-dose assay; type: cell-based, human; settings: Homo sapiens, HOP-92, HOP-92, Non-small cell lung cancer, read-out: Cell growth inhibition %
UO-31 = assay: NCI one-dose assay; type: cell-based, human; settings: Homo sapiens, UO-31, UO-31, Renal cancer, read-out: Cell growth inhibition %
HOP-62 [4] = assay: NCI five-dose assay; type: cell-based, human; settings: HOP-62, Non-small cell lung cancer; for CC50 / GI50: Homo sapiens; for CC50: 48 h, read-out: LC50 (the source's name); for GI50: read-out: GI50 Conc. per Cell Lines
NCI-H460 = assay: NCI five-dose assay; type: cell-based, human; settings: NCI-H460, Non-small cell lung cancer; for CC50 / GI50: Homo sapiens; for CC50: 48 h, read-out: LC50 (the source's name); for GI50: read-out: GI50 Conc. per Cell Lines
HCT-116 = assay: NCI five-dose assay; type: cell-based, human; settings: HCT-116, Colon cancer; for GI50: read-out: GI50 Conc. per Cell Lines
SNB-75 [5] = assay: NCI five-dose assay; type: cell-based, human; settings: SNB-75, CNS cancer; for CC50 / GI50: Homo sapiens; for CC50: 48 h, read-out: LC50 (the source's name); for GI50: read-out: GI50 Conc. per Cell Lines
MALME-3M = assay: NCI five-dose assay; type: cell-based, human; settings: Melanoma; for GI50: read-out: GI50 Conc. per Cell Lines
UACC-62 = assay: NCI five-dose assay; type: cell-based, human; settings: UACC-62, Melanoma; for CC50 / GI50: Homo sapiens; for CC50: 48 h, read-out: LC50 (the source's name); for GI50: read-out: GI50 Conc. per Cell Lines
MCF7 [6] = assay: NCI five-dose assay; type: cell-based, human; settings: MCF7, Breast cancer; for LC50 / GI50: Homo sapiens; for LC50: 48 h; for GI50: read-out: GI50 Conc. per Cell Lines
NCI 60 cell lines = assay: NCI one-dose assay, full panel; type: cell-based, human; settings: Homo sapiens, 60 cell, read-out: cell growth inhibition percentage, range
Method: The National Cancer Institute (NCI), Bethesda, USA, selected the final compounds 6a–j and 7a–j for in vitro anticancer screening. An initial in vitro single-dose anticancer experiment was performed with the entire NCI 60 cell lines derived from nine tumor subpanel cancer cell lines. The results for each compound were illustrated as a mean graph showing the percentage growth of treated cells compared to untreated control cells (see Supplementary Materials).
The NCI anticancer screening process has been thoroughly detailed. The Drug Evaluation Branch of the National Cancer Institute in Bethesda, […], USA, established the procedure and conducted the anticancer assay on 60 human tumor cell lines from nine neoplastic cancers.

[7] = Homo sapiens, 48 h, read-out: LC50 (the source's name)

SMILES: Cc1ccc(C(=O)CSc2nnc(-c3c[nH]c4ccccc34)n2-c2ccccc2)cc1 [Compound 6h, 2-((5-(1H-Indol-3-yl)-4-phenyl-4H-1,2,4-triazol-3-yl)thio)-1-(p-tolyl)ethenone]
- inhibition at 10 µM (HOP-62 [1]): 92.2%
- inhibition at 10 µM (HT29): 92.9%
- inhibition at 10 µM (LOX IMVI): 120%
- inhibition at 10 µM (M14): 48.9%
- inhibition at 10 µM (MCF7 [2]): 87.5%
- inhibition at 10 µM (MDA-MB-435): 61.4%
- inhibition at 10 µM (MDA-MB-468): 52%
- inhibition at 10 µM (NCI-H322M): 25.1%
- inhibition at 10 µM (OVCAR-4): 116%
- inhibition at 10 µM (OVCAR-8): 88.7%
- inhibition at 10 µM (SF-268): 70.3%
- inhibition at 10 µM (SK-MEL-2): 15.3%
- inhibition at 10 µM (SK-MEL-5): 67.1%
- inhibition at 10 µM (SNB-19): 80.3%
- inhibition at 10 µM (SNB-75 [3]): 101%
- inhibition at 10 µM (SW-620): 81%
- inhibition at 10 µM (T-47D): 53.3%
- inhibition at 10 µM (TK-10): 102%
- inhibition at 10 µM (786-0): 135%
- inhibition at 10 µM (A498): 14.2%
- inhibition at 10 µM (HOP-92): 108%
- inhibition at 10 µM (UO-31): 69.7%
- TGI Conc. per Cell Lines (HOP-62 [4]): 35.90 µM
- CC50 (HOP-62 [4]): 80 µM
- GI50 (HOP-62 [4]): 16.1 µM
- CC50 (NCI-H460): 63.5 µM
- GI50 (NCI-H460): 15.2 µM
- TGI Conc. per Cell Lines (NCI-H460): 31.00 µM
- TGI Conc. per Cell Lines (HCT-116): 60.40 µM
- CC50 (HCT-116; [7]): > 100 µM
- GI50 (HCT-116; Homo sapiens): 18.7 µM
- CC50 (SNB-75 [5]): 68 µM
- GI50 (SNB-75 [5]): 12.9 µM
- TGI Conc. per Cell Lines (SNB-75 [5]): 29.60 µM
- GI50 (MALME-3M; Homo sapiens): 16.2 µM
- TGI Conc. per Cell Lines (MALME-3M): 36.20 µM
- CC50 (UACC-62): 95.1 µM
- GI50 (UACC-62): 15.3 µM
- TGI Conc. per Cell Lines (UACC-62): 38.10 µM
- LC50 (MCF7 [6]): 98.1 µM
- GI50 (MCF7 [6]): 15.7 µM
- TGI Conc. per Cell Lines (MCF7 [6]): 39.20 µM
- inhibition at 10 µM (NCI 60 cell lines; ten cancer cell lines with complete cell death): 101 to 141%
- inhibition at 10 µM (NCI 60 cell lines; twenty-five cell lines): 67 to 99%

SMILES: Cc1ccc(/C(CSc2nnc(-c3c[nH]c4ccccc34)n2-c2ccccc2)=N/O)cc1 [Compound 7h, (Z)-2-((5-(1H-Indol-3-yl)-4-phenyl-4H-1,2,4-triazol-3-yl)thio)-1-(p-tolyl)ethanone Oxime]
- inhibition at 10 µM (HOP-62 [1]): 157%
- inhibition at 10 µM (HT29): 93.7%
- inhibition at 10 µM (LOX IMVI): 188%
- inhibition at 10 µM (M14): 164%
- inhibition at 10 µM (MCF7 [2]): 155%
- inhibition at 10 µM (MDA-MB-435): 200%
- inhibition at 10 µM (MDA-MB-468): 189%
- inhibition at 10 µM (NCI-H322M): 142%
- inhibition at 10 µM (OVCAR-4): 187%
- inhibition at 10 µM (OVCAR-8): 128%
- inhibition at 10 µM (SF-268): 160%
- inhibition at 10 µM (SK-MEL-2): 37.3%
- inhibition at 10 µM (SK-MEL-5): 65.9%
- inhibition at 10 µM (SNB-19): 119%
- inhibition at 10 µM (SNB-75 [3]): 144%
- inhibition at 10 µM (SW-620): 180%
- inhibition at 10 µM (T-47D): 147%
- inhibition at 10 µM (TK-10): 165%
- inhibition at 10 µM (786-0): 97.8%
- inhibition at 10 µM (A498): 8.13%
- inhibition at 10 µM (HOP-92): 106%
- inhibition at 10 µM (UO-31): 93.5%
- TGI Conc. per Cell Lines (HOP-62 [4]): 3.42 µM
- CC50 (HOP-62 [4]): 6.93 µM
- GI50 (HOP-62 [4]): 1.69 µM
- CC50 (NCI-H460): 6.55 µM
- GI50 (NCI-H460): 3.18 µM
- TGI Conc. per Cell Lines (NCI-H460): 12.20 µM
- TGI Conc. per Cell Lines (HCT-116): 3.65 µM
- GI50 (HCT-116; Homo sapiens): 1.87 µM
- CC50 (SNB-75 [5]): 5.48 µM
- GI50 (SNB-75 [5]): 1.4 µM
- TGI Conc. per Cell Lines (SNB-75 [5]): 2.77 µM
- CC50 (MALME-3M; [7]): 59.1 µM
- GI50 (MALME-3M; Homo sapiens): 2.26 µM
- TGI Conc. per Cell Lines (MALME-3M): 5.57 µM
- CC50 (UACC-62): 6.31 µM
- GI50 (UACC-62): 1.69 µM
- TGI Conc. per Cell Lines (UACC-62): 3.26 µM
- LC50 (MCF7 [6]): > 100 µM
- GI50 (MCF7 [6]): 2.42 µM
- TGI Conc. per Cell Lines (MCF7 [6]): 7.01 µM
- inhibition at 10 µM (NCI 60 cell lines; sixteen cell lines): 72 to 98%
- inhibition at 10 µM (NCI 60 cell lines; thirty-six cell lines with complete cell death): 106 to 200%

From paper PMC11859928, “Design, Synthesis, and Antiproliferative Activity of Novel Indole/1,2,4-Triazole Hybrids as Tubulin Polymerization Inhibitors” (Pharmaceuticals, 2025)
